From paper PMC3180442 (PLoS ONE, 2011)

How the values were obtained:
[1] = biological target: T1, RipA (Yersinia pestis, UniProt Q9ZC36); details: 5 µM RipA, 20 µM ligand, 100 mM potassium phosphate pH 7.4; Tm with ligand, apo RipA 45.8 °C
[2] = biological target: T1, RipA; details: 10 mM acid vs 10 mM acetate, butyryl-CoA as CoA donor, 100 mM Tris pH 7.0, room temperature; competing acceptor acid
[3] = biological target: T1, RipA; details: active site near Glu249; crystals grown with succinyl-CoA and tacsimate pH 5.0; acetate is the CoA acceptor in the activity assay
[4] = biological target: Yersinia pestis RipA (Yersinia pestis); experiment: SEC
[5] = biological target: Yersinia pestis RipA (Yersinia pestis); experiment: crystal structure
[6] = biological target: Yersinia pestis RipA (Yersinia pestis); experiment: SAXS

CCC(=O)SCCNC(=O)CCNC(=O)[C@H](O)C(C)(C)COP(=O)(O)OP(=O)(O)OC[C@H]1O[C@@H](n2cnc3c(N)ncnc32)[C@H](O)[C@@H]1OP(=O)(O)O [Propionyl-CoA]
Tm (°C) [1]: 53.5±0.06 °C

C/C=C/C(=O)SCCNC(=O)CCNC(=O)[C@H](O)C(C)(C)COP(=O)(O)OP(=O)(O)OC[C@H]1O[C@@H](n2cnc3c(N)ncnc32)[C@H](O)[C@@H]1OP(=O)(O)O [Crotonyl-CoA]
Tm (°C) [1]: 47.9±0.54 °C

CCC(=O)O [propionate]
% decrease in the rate of acetyl-CoA formation [2]: 80%

CC(=O)SCCNC(=O)CCNC(=O)[C@H](O)C(C)(C)COP(=O)(O)OP(=O)(O)OC[C@H]1O[C@@H](n2cnc3c(N)ncnc32)[C@H](O)[C@@H]1OP(=O)(O)O [Acetyl-CoA]
Tm (°C) [1]: 52.8±0.03 °C

CC(=O)CC(=O)SCCNC(=O)CCNC(=O)[C@H](O)C(C)(C)COP(=O)(O)OP(=O)(O)OC[C@H]1O[C@@H](n2cnc3c(N)ncnc32)[C@H](O)[C@@H]1OP(=O)(O)O [Aceto-acetyl-CoA]
Tm (°C) [1]: 48.3±0.01 °C

CC(=O)O [acetate]
X-ray crystal structure, 1.9 Å [3]: electron density near the active site glutamate suggests an acetate molecule is located within

CC(C)(COP(=O)(O)OP(=O)(O)OC[C@H]1O[C@@H](n2cnc3c(N)ncnc32)[C@H](O)[C@@H]1OP(=O)(O)O)[C@@H](O)C(=O)NCCC(=O)NCCSC(=O)CCC(=O)O [Succinyl-CoA]
Tm (°C) [1]: 52.8±0.28 °C

O=C(O)CCCO [4-hydroxybutyrate]
% decrease in the rate of acetyl-CoA formation [2]: 10%

CCCC(=O)SCCNC(=O)CCNC(=O)[C@H](O)C(C)(C)COP(=O)(O)OP(=O)(O)OC[C@H]1O[C@@H](n2cnc3c(N)ncnc32)[C@H](O)[C@@H]1OP(=O)(O)O [Butyryl-CoA]
Tm (°C) [1]: 53.4±0.05 °C

CCCC(=O)O [butyrate]
% decrease in the rate of acetyl-CoA formation [2]: 80%

Yersinia pestis RipA (enzyme)
stoichiometry N [4]: 4 | stoichiometry N [5]: 4 | stoichiometry N [6]: 4
